In the assay the target is T1, Androgen Receptor (AR) (Homo sapiens, UniProt P10275, T878A).
T1 construct: cell based immuno-fluorescence assay using the LNCaP prostate epithelial cell line; endogenous in cells; host or cells: LNCaP clone FGC (ATCC CRL-1740)
T1 sequence (P10275 1-920 T878A): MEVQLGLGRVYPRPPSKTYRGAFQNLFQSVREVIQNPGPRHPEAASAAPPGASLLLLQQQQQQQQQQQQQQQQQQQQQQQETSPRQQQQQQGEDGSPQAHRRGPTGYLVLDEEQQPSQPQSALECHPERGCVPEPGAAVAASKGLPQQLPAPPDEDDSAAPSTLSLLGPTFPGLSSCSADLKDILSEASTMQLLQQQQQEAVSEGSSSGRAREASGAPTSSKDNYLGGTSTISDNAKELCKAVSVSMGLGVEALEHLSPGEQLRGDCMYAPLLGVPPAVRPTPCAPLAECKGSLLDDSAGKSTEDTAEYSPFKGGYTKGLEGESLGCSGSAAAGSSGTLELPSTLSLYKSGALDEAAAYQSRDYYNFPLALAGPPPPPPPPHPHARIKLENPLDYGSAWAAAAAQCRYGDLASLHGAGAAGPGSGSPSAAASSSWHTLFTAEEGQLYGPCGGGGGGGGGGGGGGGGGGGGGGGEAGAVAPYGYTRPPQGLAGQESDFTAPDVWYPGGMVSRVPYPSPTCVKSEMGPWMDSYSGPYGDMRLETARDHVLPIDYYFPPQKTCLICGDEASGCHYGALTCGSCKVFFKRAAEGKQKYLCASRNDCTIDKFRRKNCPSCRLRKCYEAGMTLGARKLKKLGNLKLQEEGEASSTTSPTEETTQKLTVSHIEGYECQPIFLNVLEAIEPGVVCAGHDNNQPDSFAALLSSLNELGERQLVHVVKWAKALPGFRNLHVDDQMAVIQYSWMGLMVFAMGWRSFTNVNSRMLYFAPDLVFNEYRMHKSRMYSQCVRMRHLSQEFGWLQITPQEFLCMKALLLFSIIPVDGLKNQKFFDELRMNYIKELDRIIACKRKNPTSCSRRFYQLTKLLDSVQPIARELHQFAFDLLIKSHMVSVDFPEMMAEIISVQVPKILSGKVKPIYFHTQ
Put plainly: LNCaP Androgen Receptor Down-regulation Cell Assay (immunofluorescence end point). Type of assay: cell-based. Particulars: LNCaP prostate carcinoma cells, compound incubation 20-22 hours, 50% reduction of the AR signal; read-out: Androgen Receptor Down-regulation Assay (a) IC50/μM. An outline of the steps:
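AR loss reported as IC50 from curve fits of fluorescence dose-response data, with AR immunostained and read by laser-scanning cytometry. Compound exposure was 20-22 h at 37° C in LNCaP cells grown in 5% charcoal-stripped FBS and plated overnight beforehand.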
Take `C[C@H](c1ccc(F)cc1)N1CCN(c2ccc3nnc(C(F)(F)F)n3n2)CC1` [Example 308, 6-[4-[(1R)-1-(4-fluorophenyl)ethyl]piperazin-1-yl]-3-(trifluoromethyl)[1,2,4]triazolo[4,3-b]pyridazine]: the DC50 stood at 1.4 µM.

In the case of `CC(C)(c1ccc(F)cc1)N1CCN(c2ccc3nnc(C(F)(F)F)n3n2)CC1` [Example 309, 6-[4-[1-(4-fluorophenyl)-1-methylethyl]piperazin-1-yl]-3-(trifluoromethyl)[1,2,4]triazolo[4,3-b]pyridazine], the DC50 came to 1.6 µM.

`OC1(c2cccc(F)c2)CCN(c2ccc3nnc(C(F)(F)F)n3n2)CC1` [Example 310, 4-(3-fluorophenyl)-1-[3-(trifluoromethyl)[1,2,4]triazolo[4,3-b]pyridazin-6-yl]piperidin-4-ol]: the DC50 amounted to 3.2 µM.

For `COc1ccc(C2(O)CCN(c3ccc4nnc(C(F)(F)F)n4n3)CC2)cc1` [Example 311], the DC50 came out at 5 µM.

On to `COc1cccc(C2(O)CCN(c3ccc4nnc(C(F)(F)F)n4n3)CC2)c1` [Example 312], for which the DC50 worked out at 2.6 µM.

In the case of `OC1(c2cccc(Cl)c2)CCN(c2ccc3nnc(C(F)(F)F)n3n2)CC1` [Example 313], the DC50 was found to be 1.8 µM.

On to `COc1ccccc1C1(O)CCN(c2ccc3nnc(C(F)(F)F)n3n2)CC1` [Example 314], for which the DC50 was determined as 4.6 µM.

With `OC1(c2ccccc2Cl)CCN(c2ccc3nnc(C(F)(F)F)n3n2)CC1` [Example 315, 4-(2-chlorophenyl)-1-[3-(trifluoromethyl)[1,2,4]triazolo[4,3-b]pyridazin-6-yl]piperidin-4-ol], the DC50 worked out at 2 µM.

`N#Cc1ccccc1C1(O)CCN(c2ccc3nnc(C(F)(F)F)n3n2)CC1` [Example 317, 2-[4-hydroxy-1-[3-(trifluoromethyl)[1,2,4]triazolo[4,3-b]pyridazin-6-yl]piperidin-4-yl]benzonitrile]: the DC50 came out at 4.1 µM.

As to `OC1(c2cncc(C(F)(F)F)c2)CCN(c2ccc3nnc(C(F)(F)F)n3n2)CC1` [Example 320, 4-[5-(trifluoromethyl)pyridin-3-yl]-1-[3-(trifluoromethyl)[1,2,4]triazolo[4,3-b]pyridazin-6-yl]piperidin-4-ol], the DC50 came to 8.6 µM.

Take `COc1ccc(C2(O)CCN(c3ccc4nnc(C(F)(F)F)n4n3)CC2)cn1` [Example 321, 4-(6-methoxypyridin-3-yl)-1-[3-(trifluoromethyl)[1,2,4]triazolo[4,3-b]pyridazin-6-yl]piperidin-4-ol]: the DC50 was determined as 8 µM.

As for `Cc1ccnc(C2(O)CCN(c3ccc4nnc(C(F)(F)F)n4n3)CC2)c1` [Example 322, 4-(4-methylpyridin-2-yl)-1-[3-(trifluoromethyl)[1,2,4]triazolo[4,3-b]pyridazin-6-yl]piperidin-4-ol], the DC50 came out at 9.6 µM.

Turning to `OC1(c2ccc(Cl)nc2)CCN(c2ccc3nnc(C(F)(F)F)n3n2)CC1` [Example 323, 4-(6-chloropyridin-3-yl)-1-[3-(trifluoromethyl)[1,2,4]triazolo[4,3-b]pyridazin-6-yl]piperidin-4-ol], the DC50 is more than 8.1 µM.

Turning to `OC1(c2nccs2)CCN(c2ccc3nnc(C(F)(F)F)n3n2)CC1` [Example 324, 4-(1,3-thiazol-2-yl)-1-[3-(trifluoromethyl)[1,2,4]triazolo[4,3-b]pyridazin-6-yl]piperidin-4-ol], the DC50 is 5.9 µM.

As for `FC(F)(F)c1nnc2ccc(N3CCC(c4c[nH]c5ncccc45)CC3)nn12` [Example 325, 6-[4-(1H-pyrrolo[2,3-b]pyridin-3-yl)piperidin-1-yl]-3-(trifluoromethyl)[1,2,4]triazolo[4,3-b]pyridazine], the DC50 is more than 1.2 µM.

For `FC(F)(F)c1nnc2ccc(N3CCC(c4c[nH]c5ccncc45)CC3)nn12` [Example 326], the DC50 is 2 µM.

As to `FC(F)(F)c1nnc2ccc(N3CCC(c4c[nH]c5cnccc45)CC3)nn12` [Example 327], the DC50 is 1 µM.

On to `FC(F)(F)c1nnc2ccc(N3CCC(c4c[nH]c5cccnc45)CC3)nn12` [Example 328], for which the DC50 came out at 0.75 µM.

For the compound `COC(=O)c1ccccc1C1CCN(c2ccc3nnc(C(F)(F)F)n3n2)C1` (centres unmarked) [Example 333], the DC50 is 2.7 µM.

`COC(=O)c1cccc(C2CCN(c3ccc4nnc(C(F)(F)F)n4n3)C2)c1` (centres unmarked) [Example 334]: the DC50 stood at 1.1 µM.

Turning to `FC(F)(F)c1ccc(C2CCN(c3ccc4nnc(C(F)(F)Cl)n4n3)C2)cc1` (centres unmarked) [Example 335], the DC50 came to 1.5 µM.

Take `FC(F)(F)c1cccc(C2CCN(c3ccc4nnc(C(F)(F)Cl)n4n3)C2)c1` (centres unmarked) [Example 336]: the DC50 was determined as 2.4 µM.

Take `FC(F)(Cl)c1nnc2ccc(N3CCN(c4c(Cl)cncc4Cl)CC3)nn12` [Example 339, 3-[chloro(difluoro)methyl]-6-[4-(3,5-dichloropyridin-4-yl)piperazin-1-yl][1,2,4]triazolo[4,3-b]pyridazine]: the DC50 amounted to 0.77 µM.

Turning to `N#Cc1ccc(CN2CCN(c3ccc4nnc(C(F)(F)Cl)n4n3)CC2)cc1` [Example 342], the DC50 amounted to 2.1 µM.

Turning to `N#Cc1cccc(CN2CCN(c3ccc4nnc(C(F)(F)Cl)n4n3)CC2)c1` [Example 343], the DC50 was found to be 1.7 µM.

For `FC(F)(Cl)c1nnc2ccc(N3CCN(Cc4cccc(Br)c4)CC3)nn12` [Example 344], the DC50 was 0.29 µM.

As to `Fc1cccc(CN2CCN(c3ccc4nnc(C(F)(F)Cl)n4n3)CC2)c1` [Example 345], the DC50 is 1.1 µM.

Consider `FC(F)(F)c1cccc(CN2CCN(c3ccc4nnc(C(F)(F)Cl)n4n3)CC2)c1` [Example 346], for which the DC50 amounted to 8.5 µM.

As to `FC(F)(F)c1cccc(CN2CCN(c3ccc4nnc(C(F)(F)Cl)n4n3)CC2)c1` [Example 347], the DC50 was 0.97 µM.

Take `FC(F)(Cl)c1nnc2ccc(N3CCN(Cc4ccc(Br)cc4)CC3)nn12` [Example 348]: the DC50 turned out to be 1 µM.

As for `FC(F)(Cl)c1nnc2ccc(N3CCN(CCc4ccccc4)CC3)nn12` [Example 349, 3-[chloro(difluoro)methyl]-6-[4-(2-phenylethyl)piperazin-1-yl][1,2,4]triazolo[4,3-b]pyridazine], the DC50 stood at 1.7 µM.

Regarding `CC(c1ccccc1)N1CCN(c2ccc3nnc(C(F)(F)Cl)n3n2)CC1` (centres unmarked) [Example 350, 3-[chloro(difluoro)methyl]-6-[4-(1-Phenylethyl)piperazin-1-yl][1,2,4]triazolo[4,3-b]pyridazine], the DC50 was 0.74 µM.

Take `FC(F)(F)c1cnc(N2CCCN(c3ccc4nnc(C(F)(F)Cl)n4n3)CC2)c(Cl)c1` [Example 351, 3-[chloro(difluoro)methyl]-6-[4-[3-chloro-5-(trifluoromethyl)pyridin-2-yl]-1,4-diazepan-1-yl][1,2,4]triazolo[4,3-b]pyridazine]: the DC50 worked out at 1.9 µM.

In the case of `CC1CN(Cc2ccccc2)CCN1c1ccc2nnc(C(F)(F)Cl)n2n1` (centres unmarked) [Example 352, 6-(4-benzyl-2-methylpiperazin-1-yl)-3-[chloro(difluoro)methyl][1,2,4]triazolo[4,3-b]pyridazine], the DC50 turned out to be 0.57 µM.

Regarding `Cc1cccc(C)c1N1CCN(c2ccc3nnc(C(F)(F)Cl)n3n2)CC1` [Example 353, 3-[chloro(difluoro)methyl]-6-[4-(2,6-dimethylphenyl)piperazin-1-yl][1,2,4]triazolo[4,3-b]pyridazine], the DC50 was determined as 0.69 µM.

The record behind these values is US8003649B2 (AstraZeneca AB, priority 2007, dated 2011).
